Key:
Assay type in all cases: functional, organism-based
Plasmodium falciparum [1] = assay: Antimalarial activity against Plasmodium falciparum 3D7 infected in human A positive erythrocytes assessed as reduction in parasite growth incubated for 24 hrs by [3H]hypoxanthine based scintillation counting analysis; conditions: 3D7, Erythrocyte
Plasmodium falciparum [2] = assay: Antimalarial activity against chloroquine-resistant Plasmodium falciparum K1 infected in human A positive erythrocytes assessed as reduction in parasite growth incubated for 24 hrs by [3H]hypoxanthine based scintillation counting analysis; conditions: K1, Erythrocyte
Plasmodium falciparum [3] = assay: Antimalarial activity against Plasmodium falciparum 3D7 infected in erythrocytes assessed as inhibition of parasite growth incubated for 48 hrs by SYBR-Green I fluorescence-based assay; conditions: 3D7, Erythrocyte
Plasmodium falciparum [4] = assay: Antimalarial activity against Plasmodium falciparum INDO infected in erythrocytes assessed as inhibition of parasite growth incubated for 48 hrs by SYBR-Green I fluorescence-based assay; conditions: Erythrocyte
Plasmodium falciparum [5] = assay: Antimalarial activity against chloroquine-resistant Plasmodium falciparum FcB1 assessed as inhibition of parasite growth
Plasmodium falciparum [6] = assay: Antiplasmodial activity against chloroquine-resistant erythrocyte stage Plasmodium falciparum Dd2 assessed as inhibition of parasite growth incubated for 3 days by ELISA; conditions: 72 h
Plasmodium falciparum [7] = assay: Antiplasmodial activity against chloroquine-sensitive erythrocyte stage Plasmodium falciparum 3D7 assessed as inhibition of parasite growth incubated for 3 days by ELISA; conditions: 3D7, Erythrocyte, 72 h
Plasmodium falciparum [8] = assay: Antimalarial activity against chloroquine-resistant Plasmodium falciparum K1 assessed as reduction in parasite growth incubated for 72 hrs by ELISA; conditions: K1, 72 h
Plasmodium falciparum [9] = assay: Antimalarial activity against chloroquine-sensitive Plasmodium falciparum 3D7 assessed as reduction in parasite growth
Plasmodium falciparum [10] = assay: Antimalarial activity against chloroquine-resistant Plasmodium falciparum K1 assessed as reduction in parasite growth
Plasmodium falciparum [11] = assay: Antimalarial activity against chloroquine-resistant Plasmodium falciparum W2 transfected in human type A-positive RBC cells assessed reduction in parasite growth by measuring LDH activity incubated for 72 hrs by spectrophotometric analysis
Plasmodium falciparum [12] = assay: Antimalarial activity against chloroquine-sensitive Plasmodium falciparum D10 transfected in human type A-positive RBC cells assessed reduction in parasite growth by measuring LDH activity incubated for 72 hrs by spectrophotometric analysis
Plasmodium falciparum [13] = assay: Antimalarial activity against chloroquine-resistant Plasmodium falciparum K1
Plasmodium falciparum [14] = assay: Antiplasmodial activity against multi-resistant Plasmodium falciparum W2 infected in erythrocytes assessed as inhibition of parasite growth incubated for 48 hrs by flow cytometry; conditions: W2, Erythrocyte
[15] = Plasmodium falciparum, W2, Erythrocyte, 72 h
[16] = Plasmodium falciparum, D10, Erythrocyte, 72 h

## Clc1ccc2[nH]c3c(NCCN4CCOCC4)nccc3c2c1
Plasmodium falciparum [1]
  IC50: 2.35 µM
Plasmodium falciparum [2]
  IC50: 4.95 µM

## CCOC(=O)c1cc2c([nH]c3ccccc32)c(-c2ccc(NS(=O)(=O)c3ccc(C)cc3)cc2)n1
Plasmodium falciparum [3]
  IC50: 3.7 µM
Plasmodium falciparum [4]
  IC50: 1.9 µM

## CCOC(=O)c1cc2c([nH]c3ccccc32)c(-c2ccc(NC(=O)C(C)(C)C)cc2)n1
Plasmodium falciparum [3]
  IC50: 3.5 µM
Plasmodium falciparum [4]
  IC50: 2.38 µM

## c1ccc2c(CC3NCCc4c3[nH]c3ccccc43)c[nH]c2c1 (stereo unspecified)
Plasmodium falciparum [5]
  IC50: 9.6 µM

## C/C(=C\c1ccccc1)C(=O)NCCOc1ccc2c(c1)[nH]c1c(C)nccc12
Plasmodium falciparum [6]
  IC50: 19.5 µM
Plasmodium falciparum [7]
  IC50: 6.78 µM

## CC#CCN1CCc2c([nH]c3ccccc23)C1CC(=O)OCC (stereo unspecified)
Plasmodium falciparum [8]
  IC50: 13.8 µM

## COC(=O)c1cc2c3ccccc3n3c2c(n1)C(c1ccccc1)OC(C)=C3 (stereo unspecified)
Plasmodium falciparum [9]
  IC50: > 5 µM
Plasmodium falciparum [10]
  IC50: > 5 µM

## COC(=O)c1cc2c3ccccc3n3c2c(n1)COC(C)=C3
Plasmodium falciparum [9]
  IC50: > 5 µM

## CCOC(=O)c1cc2c([nH]c3ccccc32)c(-c2ccc(/N=C(/Nc3ccc(OC(F)(F)F)cc3)NC3CC3)cc2)n1
Plasmodium falciparum [3]
  IC50: 1 µM
Plasmodium falciparum [4]
  IC50: 0.77 µM

## CCOC(=O)CC1c2c(c3ccccc3n2C(=O)OC(C)(C)C)CCN1C(=O)OCc1ccccc1 (stereo unspecified)
Plasmodium falciparum [8]
  IC50: 15.5 µM

## Clc1ccc2[nH]c3c(N4CCC(N5CCOCC5)CC4)nccc3c2c1
Plasmodium falciparum [1]
  IC50: 5.32 µM
Plasmodium falciparum [2]
  IC50: 1.9 µM

## COc1ccc2c3ccnc(C)c3n(CCNC(=O)/C=C/c3ccc(Cl)cc3)c2c1
Plasmodium falciparum [6]
  IC50: 0.17 µM
Plasmodium falciparum [7]
  IC50: 0.04 µM

## O=C(NCCCN1CCOCC1)C1Cc2c([nH]c3ccccc23)C(c2ccc(Cl)cc2)N1 (stereo unspecified)
Plasmodium falciparum [11]; [15]
  IC50: 6.15 µM
Plasmodium falciparum [12]; [16]
  IC50: 11.5 µM

## CCOC(=O)CC1c2[nH]c3ccccc3c2CCN1S(=O)(=O)c1ccc(C)cc1 (stereo unspecified)
Plasmodium falciparum [8]
  IC50: 13.8 µM

## Clc1ccc2[nH]c3c(NCCCn4ccnc4)nccc3c2c1
Plasmodium falciparum [1]
  IC50: 0.45 µM
Plasmodium falciparum [2]
  IC50: 0.92 µM

## CCC1NC(C(=O)NC23CC4CC(CC(C4)C2)C3)Cc2c1[nH]c1ccccc21 (stereo unspecified)
Plasmodium falciparum [11]; [15]
  IC50: 11.4 µM
Plasmodium falciparum [12]; [16]
  IC50: 9.73 µM

## COC(=O)c1cc2c3cc(Cl)ccc3n3c2c(n1)COC(C)=C3
Plasmodium falciparum [9]
  IC50: 1.78 µM
Plasmodium falciparum [10]
  IC50: 2.45 µM

## Cc1nccc2c1[nH]c1cc(OCCNC(=O)/C=C/c3ccccc3F)ccc12
Plasmodium falciparum [6]
  IC50: 3.92 µM
Plasmodium falciparum [7]
  IC50: 0.93 µM

## COC(=O)C1Cc2c([nH]c3ccccc23)C(Cc2c[nH]c3ccccc23)N1 (stereo unspecified)
Plasmodium falciparum [5]
  IC50: 17.2 µM

## CCOC(=O)c1cc2c([nH]c3ccccc32)c(-c2ccc(/N=C(/Nc3ccc(OC)cc3)NC3CC3)cc2)n1
Plasmodium falciparum [3]
  IC50: 7.6 µM
Plasmodium falciparum [4]
  IC50: 1.2 µM

## CC(C)(C)OC(=O)n1c2c(c3ccccc31)CCN(C(=O)OCc1ccccc1)C2CCO (stereo unspecified)
Plasmodium falciparum [13]
  IC50: 21.4 µM

## CCOC(=O)c1cc2c([nH]c3ccccc32)c(-c2ccc(NC(=S)Nc3ccc(OC(F)(F)F)cc3)cc2)n1
Plasmodium falciparum [3]
  IC50: 18.7 µM
Plasmodium falciparum [4]
  IC50: 0.39 µM

## CCN(CC)CCCC(C)Nc1nccc2c1[nH]c1ccc(Cl)cc12 (stereo unspecified)
Plasmodium falciparum [1]
  IC50: 0.17 µM
Plasmodium falciparum [2]
  IC50: 0.24 µM

## Cc1nccc2c1[nH]c1cc(OCCNC(=O)/C=C/c3ccc(Cl)cc3)ccc12
Plasmodium falciparum [6]
  IC50: 0.4 µM
Plasmodium falciparum [7]
  IC50: 0.32 µM

## Cc1nccc2c1[nH]c1cc(OCCNC(=O)/C=C/c3ccc(F)cc3)ccc12
Plasmodium falciparum [6]
  IC50: 0.69 µM
Plasmodium falciparum [7]
  IC50: 0.15 µM

## Cc1nccc2c1[nH]c1cc(OCCNC(=O)/C=C/c3ccccc3)ccc12
Plasmodium falciparum [6]
  IC50: 4.7 µM
Plasmodium falciparum [7]
  IC50: 0.98 µM

## CC(C)(C)CC(C)(C)NC(=O)C1Cc2c([nH]c3ccccc23)C(c2ccc(Cl)cc2)N1 (stereo unspecified)
Plasmodium falciparum [11]; [15]
  IC50: 6.41 µM
Plasmodium falciparum [12]; [16]
  IC50: 8.41 µM

## C/C=C\CC1OC(C)=Cn2c3ccccc3c3cc(C(=O)OC)nc1c32 (stereo unspecified)
Plasmodium falciparum [9]
  IC50: > 5 µM

## COc1ccc2c3ccnc(C)c3n(CCNC(=O)/C=C/c3ccccc3)c2c1
Plasmodium falciparum [6]
  IC50: 1.11 µM
Plasmodium falciparum [7]
  IC50: 0.49 µM

## C=C(C#N)C1OC(C)=Cn2c3ccccc3c3cc(C(=O)OC)nc1c32 (stereo unspecified)
Plasmodium falciparum [9]
  IC50: > 5 µM

## CC#CCN1CCc2c(n(C(=O)OC(C)(C)C)c3ccccc23)C1CC(=O)OCC (stereo unspecified)
Plasmodium falciparum [13]
  IC50: 29.8 µM

## C=CCC1OC(C)=Cn2c3ccc(Cl)cc3c3cc(C(=O)OC)nc1c32 (stereo unspecified)
Plasmodium falciparum [9]
  IC50: > 5 µM
Plasmodium falciparum [10]
  IC50: > 5 µM

## CCOC(=O)c1cc2c([nH]c3ccccc32)c(-c2ccc(NC(=S)Nc3ccc(OC)cc3)cc2)n1
Plasmodium falciparum [3]
  IC50: 1.6 µM
Plasmodium falciparum [4]
  IC50: 1.8 µM

## Fc1ccc2[nH]c3c(NCCCn4ccnc4)nccc3c2c1
Plasmodium falciparum [1]
  IC50: 0.2 µM
Plasmodium falciparum [2]
  IC50: 0.41 µM

## N#Cc1ccc(C2NCCc3c2[nH]c2ccccc32)cc1 (stereo unspecified)
Plasmodium falciparum [14]
  IC50: 1.1 µM

## O=C(NC1CCCCC1)C1Cc2c([nH]c3ccccc23)C(c2ccc(Cl)cc2)N1 (racemic; form 1)
Plasmodium falciparum [11]; [15]
  IC50: 13.5 µM
Plasmodium falciparum [12]; [16]
  IC50: 16.1 µM

## O=C(NC1CCCCC1)C1Cc2c([nH]c3ccccc23)C(c2ccc(Cl)cc2)N1 (racemic; form 2)
Plasmodium falciparum [11]; rbc
  IC50: 9.13 µM
Plasmodium falciparum [12]; rbc
  IC50: 12.5 µM

## Nc1nccc(-c2nccc3c2[nH]c2ccccc23)n1 [ANNOMONTINE]
Plasmodium falciparum [3]
  IC50: 3.44 µM
Plasmodium falciparum [4]
  IC50: 3.06 µM

## O=C(c1c[nH]c2ccc(O)cc12)c1nccc2c1[nH]c1ccc(O)cc12 [HYRTIOSULAWESINE]
Plasmodium falciparum [5]
  IC50: 1.3 µM
